These results are taken from ChEMBL document CHEMBL1201862, “PubChem BioAssay data set” (2004).

Some test systems named below: CCRF-CEM; HCT-15; HL-60; HOP-62; HT-29; Hs-578T; MCF7; MOLT-4; NCI-H23; OVCAR-3; OVCAR-8; SF-268; SF-295; SF-539; SNB-19; SNB-75; SR; SW-620; U-251.
Common to all, as to experiment: inhibition of tumour cell growth, NCI panel, 48 h

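Five concentrations, 48 hours, 96-well plates. GI50 is the concentration that inhibits growth by half.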 Calls of active or inactive are those of the source. Cut-off read from the data, not from the text of the source: active = GI50 up to about 1.1 µM and inactive = higher. Where only a bound is given, the exact number is not on record here.

Consider `CCOC(=O)c1c(N=C(S)Nc2ccccc2)sc2c1CCN(C)C2`, for which the GI50 was > 100 µM (inactive) in the assay on CCRF-CEM; over 100 µM with HCT-15; > 100 µM (inactive) in the assay on HL-60; > 100 µM (inactive) in the assay on HOP-62; > 100 µM (inactive) in the assay on HT-29; > 100 µM (inactive) in the assay on Hs-578T. The GI50 with MCF7, in the assay with MOLT-4, in the assay with NCI-H23, in the assay on OVCAR-3, with OVCAR-8 and in the assay on SF-268 was > 100 µM (inactive) throughout. The GI50 in the assay on SF-295, with SF-539 and in the assay with SNB-19 was > 100 µM (inactive) each time.

As for `CCOC(=O)NC(OCc1ccccc1)(C(=O)OC)C(F)(F)F` (configuration not stated), the GI50 is > 100 µM (inactive) in the assay on CCRF-CEM; over 100 µM in the assay with HCT-15; > 100 µM (inactive) in the assay with HL-60; > 100 µM (inactive) in the assay on HT-29; > 100 µM (inactive) with Hs-578T; > 100 µM (inactive) in the assay on MCF7. The GI50 with MOLT-4, in the assay with NCI-H23, in the assay on OVCAR-3, in the assay with OVCAR-8, with SF-268 and in the assay with SF-295 was > 100 µM (inactive) in each case. The GI50 with SF-539 was > 100 µM (inactive); in the assay with SNB-19, > 100 µM (inactive); in the assay on SNB-75, > 10 µM (inactive); in the assay on SR it was > 100 µM (inactive); in the assay on SW-620, > 100 µM (inactive); in the assay on U-251 it was > 100 µM (inactive).

As for `OCCCC(O)(c1ccccc1)c1ccccc1`, the GI50 was > 100 µM (inactive) in the assay on CCRF-CEM; over 100 µM with HCT-15; > 100 µM (inactive) with HL-60; > 100 µM (inactive) in the assay on HOP-62; > 100 µM (inactive) in the assay with HT-29; > 100 µM (inactive) in the assay on Hs-578T. The GI50 with MCF7, in the assay on MOLT-4, in the assay on NCI-H23, in the assay on OVCAR-3, in the assay on OVCAR-8 and in the assay on SF-268 was > 100 µM (inactive) in each case. Moreover, the GI50 in the assay on SF-295, in the assay with SF-539, in the assay with SNB-19, in the assay on SNB-75, with SR and in the assay on SW-620 was > 100 µM (inactive) each time. In addition, in the assay with U-251, the GI50 is > 100 µM (inactive).

`O=C(N/N=C/c1ccccc1)c1c(F)c(F)c(F)c(F)c1F`: the GI50 with CCRF-CEM is > 100 µM (inactive); with HCT-15, 50.1 µM; in the assay on HL-60, > 100 µM (inactive); with HOP-62, > 100 µM (inactive); in the assay with HT-29, 54.2 µM (inactive); in the assay on Hs-578T it was > 100 µM (inactive). The GI50 in the assay on MOLT-4, in the assay on NCI-H23, in the assay on OVCAR-3, in the assay with OVCAR-8, with SF-268 and in the assay with SF-295 was > 100 µM (inactive) throughout. Moreover, the GI50 was 67 µM (inactive) with SF-539; > 100 µM (inactive) with SNB-19; > 100 µM (inactive) in the assay on SNB-75; > 100 µM (inactive) in the assay with SR; 96.8 µM (inactive) in the assay with SW-620; > 100 µM (inactive) in the assay with U-251.

Turning to `Fc1ccc2c(c1)SC1=Nc3sc4cc(F)ccc4[n+]3CN12`, the GI50 with HCT-15 is 29.5 µM; in the assay on HL-60, < 0.01 µM (active); with HOP-62, 19.5 µM (inactive); with HT-29 it was 28.8 µM (inactive); with Hs-578T it was 9.98 µM (inactive); with MCF7, 21.6 µM (inactive). The GI50 is 17.5 µM (inactive) with NCI-H23; 14.3 µM (inactive) in the assay on OVCAR-3; 14.6 µM (inactive) in the assay on OVCAR-8; 29.6 µM (inactive) in the assay with SF-268; 32.1 µM (inactive) in the assay with SF-295; 12.7 µM (inactive) in the assay on SF-539. Also, the GI50 with SNB-19 is 16.4 µM (inactive); in the assay on SNB-75 it was 15.9 µM (inactive); with SW-620 it was 27.3 µM (inactive); in the assay on U-251, 16.7 µM (inactive).

In the case of `COC(=O)C(=O)Cc1nc2ccccc2o1`, the GI50 in the assay with CCRF-CEM is > 100 µM (inactive); in the assay with HCT-15 it was over 100 µM; with HL-60, > 100 µM (inactive); in the assay on HOP-62, > 100 µM (inactive); in the assay with HT-29, > 100 µM (inactive); in the assay with MOLT-4, > 100 µM (inactive). Besides, the GI50 with NCI-H23, in the assay on OVCAR-3, in the assay on SF-268, in the assay with SF-539, in the assay with SNB-19 and in the assay on SNB-75 was > 100 µM (inactive) each time. In addition, the GI50 in the assay with SR and in the assay on U-251 was > 100 µM (inactive) in each case.

As to `O=C1c2ccccc2C(=O)N1/N=C1/SC(=N\c2ccccc2)/C(=N/c2ccccc2)N1c1ccccc1`, the GI50 in the assay on CCRF-CEM was > 51.3 µM (inactive); in the assay on HCT-15 it was over 47.5 µM; in the assay on HL-60, > 40.4 µM (inactive); in the assay with HOP-62, > 45.6 µM (inactive); in the assay with HT-29 it was > 50 µM (inactive); in the assay with Hs-578T it was > 22.9 µM (inactive). Besides, the GI50 in the assay on MCF7 was > 68.1 µM (inactive); in the assay with MOLT-4 it was > 65.8 µM (inactive); in the assay with NCI-H23, > 46.8 µM (inactive); with OVCAR-3 it was > 100 µM (inactive); with OVCAR-8 it was 40.1 µM (inactive); in the assay on SF-268, > 100 µM (inactive). Further, the GI50 with SF-295 was 26.4 µM (inactive); in the assay with SF-539 it was 33.2 µM (inactive); in the assay with SNB-19, > 90.4 µM (inactive); in the assay on SNB-75, 19.9 µM (inactive); with SR, > 31.6 µM (inactive); in the assay on SW-620, > 61.7 µM (inactive). For the same compound, in the assay on U-251, the GI50 was 24.9 µM (inactive).

In the case of `O=C(O)CN(CC(=O)O)C(C(=O)O)c1ccccc1` (configuration not stated), the GI50 in the assay on CCRF-CEM was > 100 µM (inactive); in the assay on HCT-15 it was over 100 µM; in the assay with HL-60, > 100 µM (inactive); in the assay on HOP-62, > 100 µM (inactive); with HT-29, > 100 µM (inactive); in the assay with Hs-578T, > 100 µM (inactive). Further, the GI50 in the assay with MCF7, with MOLT-4, with NCI-H23, with OVCAR-3, in the assay with OVCAR-8 and in the assay with SF-268 was > 100 µM (inactive) in each case. Further, the GI50 in the assay on SF-295, in the assay with SF-539, with SNB-19, in the assay with SNB-75, in the assay on SR and with SW-620 was > 100 µM (inactive) each time. Further, the GI50 in the assay on U-251 is > 100 µM (inactive).

Take `CC1CC/C(=C\c2ccc(Cl)cc2)C(=O)/C1=C\c1ccc(Cl)cc1` (configuration not stated): the GI50 in the assay on CCRF-CEM was 41.9 µM (inactive); in the assay on HCT-15 it was 22.4 µM; in the assay on HOP-62, 25.6 µM (inactive); in the assay on HT-29, 30.9 µM (inactive); in the assay on Hs-578T, 36.8 µM (inactive); in the assay with MCF7, 36.2 µM (inactive). Also, the GI50 with OVCAR-8 is 30.1 µM (inactive); with SF-268, 34.2 µM (inactive); in the assay with SNB-19 it was > 10 µM (inactive); with SNB-75, 49.2 µM (inactive); in the assay with SW-620, 41.3 µM (inactive); in the assay with U-251 it was 39.9 µM (inactive).

Regarding `Cc1cc2cc3c(C)cc(=O)oc3c(C)c2o1` [TRIOXSALEN], the GI50 with CCRF-CEM is > 100 µM (inactive); with HCT-15, over 100 µM; in the assay with HL-60, > 100 µM (inactive); in the assay on HOP-62 it was > 100 µM (inactive); in the assay with HT-29, > 100 µM (inactive); in the assay with Hs-578T, > 100 µM (inactive). Further, the GI50 in the assay on MCF7, with MOLT-4, in the assay with NCI-H23, in the assay on OVCAR-3, in the assay with OVCAR-8 and in the assay on SF-268 was > 100 µM (inactive) in each case. Moreover, the GI50 in the assay on SF-295, in the assay with SF-539, with SNB-19, in the assay on SNB-75, in the assay with SR and in the assay with SW-620 was > 100 µM (inactive) in each case. Also, the GI50 in the assay with U-251 is > 100 µM (inactive).

As for `N#CCc1c(F)c(F)c(F)c(F)c1F`, the GI50 with CCRF-CEM is > 100 µM (inactive); with HCT-15, over 100 µM; in the assay on HL-60 it was > 100 µM (inactive); in the assay on HOP-62, > 100 µM (inactive); with HT-29, > 100 µM (inactive); in the assay with Hs-578T, > 100 µM (inactive). Moreover, the GI50 in the assay with MCF7, with MOLT-4, with NCI-H23, with OVCAR-8, with SF-268 and with SF-295 was > 100 µM (inactive) in each case. Further, the GI50 in the assay on SF-539, with SNB-19, in the assay with SR, in the assay on SW-620 and in the assay on U-251 was > 100 µM (inactive) in each case.

In the case of `CCOC(=O)c1cc(C2CCN(Cc3ccccc3)C2=S)c(C(=O)C=[N+]=[N-])[nH]1` (configuration not stated), the GI50 with CCRF-CEM is 13.4 µM (inactive); with HCT-15, 19.5 µM; in the assay with HOP-62, 51.4 µM (inactive); in the assay on HT-29, 31.5 µM (inactive); with Hs-578T, 45.6 µM (inactive); in the assay with MCF7, 14.6 µM (inactive). For the same compound, the GI50 was 30.4 µM (inactive) in the assay on MOLT-4; 21.7 µM (inactive) in the assay on NCI-H23; 17.5 µM (inactive) with OVCAR-3; 37.3 µM (inactive) in the assay on OVCAR-8; 25.8 µM (inactive) with SF-268; 20.5 µM (inactive) with SF-295. The GI50 in the assay on SNB-19 was 28.8 µM (inactive); in the assay with SNB-75, 29.4 µM (inactive); in the assay on SW-620, 38.6 µM (inactive); in the assay with U-251 it was 25.3 µM (inactive).
